Data as given in paper PMC8697381 (ACS Omega, 2021).
Where a SMILES comes first, the peptide text is derived from it.

System: A431 human skin squamous cell carcinoma cells
Assay: In vitro cellular uptake quantified by flow cytometry
Format: cell-based
Conditions: all concentrations (0.2–25 μM), 90 min, ratio of Cf-positive cells and mean fluorescence intensity

N=C(N)NCCC[C@H](NC(=O)[C@@H]1CCCN1C(=O)[C@H](CCC(N)=O)NC(=O)[C@H](CCCCN)NC(=O)[C@H](CC(=O)O)NC(=O)[C@@H]1CCCN1C(=O)[C@H](Cc1ccccc1)NC(=O)CNC(=O)[C@H](CCC(=O)O)NC(=O)[C@H](Cc1ccccc1)NC(=O)[C@@H](N)Cc1ccccc1)C(=O)N[C@@H](CCCCN)C(=O)N[C@@H](CCCCN)C(N)=O [Peptide S100] (H-FFEGFPDKQPRKK-NH2)
cellular uptake rate, comparison between peptides: lowest cellular uptake rate
